Source: patent US20150133456A1, “FLUOROERGOLINE DERIVATIVES AND USES THEREOF” (MAP PHARMACEUTICALS, INC., priority 2012, published 2015)

Columns and labels:
[1] = system: NMDA (NR1/NR2A/NR2B/NR2C/NR2D); assay: NMDA receptor Fluo-8 calcium FLIPR assay, agonist and antagonist; assay type: cell-based, human; conditions: NMDA channels in HEK293
Procedure: The following channels were evaluated: Cloned NMDA receptor (NR1/NR2A) channel (encoded by the GRIN1 and GRIN2A genes, coexpressed in HEK293 cells; Cloned NMDA receptor (NR1/NR2B) channel (encoded by the GRIN1 and GRIN2B genes, coexpressed in HEK293 cells; Cloned NMDA receptor (NR1/NR2C) channel (encoded by the GRIN1 and GRIN2C genes, coexpressed in HEK293 cells; and Cloned NMDA receptor (NR1/NR2D) channel (encoded by the GRIN1 and GRIN2D genes, transiently coexpressed in HEK293 cells.
For the agonist assessment, the effect of 2-CF3-DHE was evaluated in the absence of the positive control agonist. The signal, elicited in the presence of the agonist (100 μM Glutamic acid+20 μM Glycine), was set to 100% activation and the signal in the presence of the vehicle control (Mg^2+-free HB-PS) was set to 0% activation.
For the antagonist assessment, NR1/NR2A and NR1/NR2B was activated with the positive control agonist (100 μM Glutamic acid+20 μM Glycine). The ability of 2-CF3-DHE to inhibit the signal was examined after agonist stimulation and compared to the positive control antagonist (MK-801).

[2] = system: Purinergic (P2X1/P2X2/P2X3/P2X4/P2X7); assay: Purinergic receptor QPatch patch clamp, agonist and antagonist modes; assay type: cell-based, human; conditions: agonist and antagonist modes at 3 and 10 μM
Procedure: Human recombinant purinergic receptor expressing HEK293 cells were used and receptor activity was evaluated at room temperature using QPatch HT® (Sophion Bioscience A/S, Denmark) automatic parallel patch clamp system. 2CF3-DHE was evaluated in both agonist and antagonist modes at 3 and 10 μM. Each concentration was tested in triplicates.

SMILES: CN1C[C@H](C(=O)N[C@]2(C)O[C@@]3(O)[C@@H]4CCCN4C(=O)[C@H](Cc4ccccc4)N3C2=O)CC2c3cccc4[nH]c(C(F)(F)F)c(c34)CC21 (some centres unmarked) [2-CF3-dihydroergotamine]
- Activity (Agonism: EC50; Antagonism: IC50) [1]: Inactive
- Activity (Agonism: EC50; Antagonism: IC50) [2]: Inactive
